Values of other authors, collected in patent US20050249795A1, “Gemcitabine compositions for better drug delivery” (NEOPHARM, INC., priority 2002, published 2005).
Where a name gives a salt, the structure may show the parent alone.

How the values were obtained:
[1] = in patients
NCI-H460 xenografts = conditions: in vivo, NCI-H460 xenograft
[2] = tested on: Lewis lung murine xenograft
[3] = tested on: CALU-6 human lung xenografts; conditions: in vivo, CALU-6 human lung xenograft
[4] = tested on: LX-1 human lung xenografts; conditions: in vivo, LX-1 human lung xenograft
NCI-H520 xenografts = conditions: in vivo, NCI-H520 xenograft
[5] = tested on: CEM T lymphoblastoid cells

SMILES | half-life [1] | activity in combination with cisplatin (NCI-H460 xenografts) | interaction with cisplatin [2] | activity in combination with cisplatin [3] | activity in combination with cisplatin [4] | activity with cisplatin in vitro | activity in combination with cisplatin (NCI-H520 xenografts) | internucleosomal DNA fragmentation [5]
Nc1ccn([C@@H]2O[C@H](CO)[C@@H](O)C2(F)F)c(=O)n1 [Gemcitabine HCL, gemcitabine hydrochloride] | very short half-life |  |  |  |  |  |  | 
Nc1ccn([C@@H]2O[C@H](CO)[C@@H](O)C2(F)F)c(=O)n1 [Gemcitabine] |  | minimal activity | synergistic | showed activity | showed activity | dose-dependent synergistic activity | minimal activity | induces internucleosomal DNA fragmentation
